In brackets after ≈: the same amount, converted by molar mass. Where two headings read alike, the source gives them in different places.
Experiments:
[1] = system: MRSA COL and MRSA Strain No. 5; test: Potentiating effect of various gallates for antibacterial activity of oxacillin (MIC by broth microdilution method and FIC); assay type: cell-based, Staphylococcus aureus; conditions: combination with oxacillin
Method: According to the broth microdilution method defined by Japan Society of Chemotherapy, MIC was determined. CAMHA was prepared by adding 50 mg/l of Ca-ion, 25 mg/l of Mg-ion, and 2% of NaCl to MHB (Mueller-Hinton Broth), and it was used as a medium for use in the measurement of sensitivity. In 96-well microplates 100 μl of the medium for use in the measurement of sensitivity containing drugs was dispensed. The bacterial liquid was incubated at 37° C. overnight, diluted with saline and added to the plate so that the final concentration of the bacteria was 5×10^5 CFU/well. […] FIC (fractional inhibitory concentration) was calculated from the result and the potency of the effect of the combination use was evaluated.

MRSA and MSSA = test: Antibacterial activity of gallic acid, various gallates and multivalent phenol derivatives alone (agar plate dilution method, MIC); assay type: cell-based, Staphylococcus aureus; conditions: Staphylococcus aureus
Method: According to the agar plate dilution method defined by Japan Society of Chemotherapy, MIC (Minimum inhibitory concentration) was determined. CAMHA was prepared by adding 50 mg/l of Ca-ion, 25 mg/l of Mg-ion, and 2% of NaCl to Mueller-Hinton II Agar (MHA), and it was used as a medium for use in the measurement of sensitivity. The bacterial liquid was incubated at 37° C. overnight and diluted to 10^6 CFU/ml with saline.
MIC for gallic acid, various gallates and multivalent phenol derivatives alone with MRSA and MSSA were determined as described in experiment 2.

What does the source list for CCCCCCOC(=O)c1cc(O)c(O)c(O)c1 [Hexyl gallate, n-hexyl gallate]?
FIC value ([1]; MRSA COL): 0.5; FIC value ([1]; MRSA Strain No. 5): 0.502; MIC50 (MRSA and MSSA): 62.5 µg/mL (≈ 246 µM); MIC (MRSA and MSSA; ATCC 6538 / MRSA / MSSA, ATCC6538, read-out: MIC alone): 31.3 µg/mL (≈ 123 µM); MIC (MRSA and MSSA; COL, read-out: MIC alone): 31.3 µg/mL (≈ 123 µM); MIC (MRSA and MSSA; MRSA #1, read-out: MIC alone): 62.5 µg/mL (≈ 246 µM); MIC (MRSA and MSSA; MRSA #2, read-out: MIC alone): 31.3 µg/mL (≈ 123 µM); MIC (MRSA and MSSA; MRSA #3, read-out: MIC alone): 31.3 µg/mL (≈ 123 µM); MIC (MRSA and MSSA; MRSA #4, read-out: MIC alone): 31.3 µg/mL (≈ 123 µM); MIC (MRSA and MSSA; MRSA #5, read-out: MIC alone): 31.3 µg/mL (≈ 123 µM); MIC (MRSA and MSSA; MRSA #6, read-out: MIC alone): 31.3 µg/mL (≈ 123 µM); MIC (MRSA and MSSA; MRSA #7, read-out: MIC alone): 31.3 µg/mL (≈ 123 µM); MIC (MRSA and MSSA; MRSA #8, read-out: MIC alone): 31.3 µg/mL (≈ 123 µM); MIC (MRSA and MSSA; MRSA #9, read-out: MIC alone): 31.3 µg/mL (≈ 123 µM); MIC (MRSA and MSSA; MRSA #10, read-out: MIC alone): 31.3 µg/mL (≈ 123 µM); MIC (MRSA and MSSA; MRSA #12, read-out: MIC alone): 62.5 µg/mL (≈ 246 µM); MIC (MRSA and MSSA; MRSA #16, read-out: MIC alone): 62.5 µg/mL (≈ 246 µM); MIC (MRSA and MSSA; MRSA #17, read-out: MIC alone): 62.5 µg/mL (≈ 246 µM); MIC (MRSA and MSSA; MRSA #18, read-out: MIC alone): 62.5 µg/mL (≈ 246 µM); MIC (MRSA and MSSA; MRSA #20, read-out: MIC alone): 62.5 µg/mL (≈ 246 µM); MIC (MRSA and MSSA; MRSA #21, read-out: MIC alone): 62.5 µg/mL (≈ 246 µM); MIC (MRSA and MSSA; MRSA #22, read-out: MIC alone): 62.5 µg/mL (≈ 246 µM); MIC (MRSA and MSSA; MRSA #24, read-out: MIC alone): 62.5 µg/mL (≈ 246 µM); MIC (MRSA and MSSA; MSSA #1003, read-out: MIC alone): 62.5 µg/mL (≈ 246 µM); MIC (MRSA and MSSA; MSSA #1010, read-out: MIC alone): 62.5 µg/mL (≈ 246 µM); MIC (MRSA and MSSA; MSSA #1020, read-out: MIC alone): 62.5 µg/mL (≈ 246 µM); MIC (MRSA and MSSA; MSSA #1023, read-out: MIC alone): 62.5 µg/mL (≈ 246 µM); MIC (MRSA and MSSA; MSSA #1029, read-out: MIC alone): 62.5 µg/mL (≈ 246 µM); MIC (MRSA and MSSA; MSSA #1032, read-out: MIC alone): 62.5 µg/mL (≈ 246 µM)

How did the FIC value ([1]; MRSA COL) turn out when CCCCCCCCCCCCOC(=O)c1cc(O)c(O)c(O)c1 [Lauryl gallate, n-lauryl gallate] was run?
Its FIC value is 0.531.

What about the FIC value ([1]; MRSA Strain No. 5) of the same compound?
The FIC value was 0.375.

What about the MIC (MRSA and MSSA; ATCC 6538 / MRSA / MSSA, ATCC6538, compound alone, read-out: MIC) of the same compound?
Its MIC is 62.5 µg/mL (≈ 185 µM).

What about the MIC (MRSA and MSSA; COL, compound alone, read-out: MIC) of the same compound?
The MIC was 31.3 µg/mL (≈ 92.5 µM).

And the MIC (MRSA and MSSA; MRSA #1, compound alone, read-out: MIC)?
Its MIC is 62.5 µg/mL (≈ 185 µM).

And the MIC (MRSA and MSSA; MRSA #2, compound alone, read-out: MIC)?
Its MIC is 62.5 µg/mL (≈ 185 µM).

What about the MIC (MRSA and MSSA; MRSA #3, compound alone, read-out: MIC) of the same compound?
Its MIC is 62.5 µg/mL (≈ 185 µM).

And the MIC (MRSA and MSSA; MRSA #4, compound alone, read-out: MIC)?
The MIC was 62.5 µg/mL (≈ 185 µM).

What about the MIC (MRSA and MSSA; MRSA #5, compound alone, read-out: MIC) of the same compound?
Its MIC is 62.5 µg/mL (≈ 185 µM).

What about the MIC (MRSA and MSSA; MRSA #6, compound alone, read-out: MIC) of the same compound?
The MIC was 31.3 µg/mL (≈ 92.5 µM).

And the MIC (MRSA and MSSA; MRSA #7, compound alone, read-out: MIC)?
The MIC was 31.3 µg/mL (≈ 92.5 µM).

What about the MIC (MRSA and MSSA; MRSA #8, compound alone, read-out: MIC) of the same compound?
The MIC was 31.3 µg/mL (≈ 92.5 µM).

What about the MIC (MRSA and MSSA; MRSA #9, compound alone, read-out: MIC) of the same compound?
The MIC was 31.3 µg/mL (≈ 92.5 µM).

And the MIC (MRSA and MSSA; MRSA #10, compound alone, read-out: MIC)?
The MIC was 15.6 µg/mL (≈ 46.1 µM).

What about the MIC (MRSA and MSSA; MRSA #12, compound alone, read-out: MIC) of the same compound?
Its MIC is 62.5 µg/mL (≈ 185 µM).

What about the MIC (MRSA and MSSA; MRSA #16, compound alone, read-out: MIC) of the same compound?
Its MIC is 62.5 µg/mL (≈ 185 µM).

What about the MIC (MRSA and MSSA; MRSA #17, compound alone, read-out: MIC) of the same compound?
Its MIC is 62.5 µg/mL (≈ 185 µM).

And the MIC (MRSA and MSSA; MRSA #18, compound alone, read-out: MIC)?
The MIC was 62.5 µg/mL (≈ 185 µM).

What about the MIC (MRSA and MSSA; MRSA #20, compound alone, read-out: MIC) of the same compound?
Its MIC is 62.5 µg/mL (≈ 185 µM).

And the MIC (MRSA and MSSA; MRSA #21, compound alone, read-out: MIC)?
The MIC was 62.5 µg/mL (≈ 185 µM).

What about the MIC (MRSA and MSSA; MRSA #22, compound alone, read-out: MIC) of the same compound?
Its MIC is 62.5 µg/mL (≈ 185 µM).

And the MIC (MRSA and MSSA; MRSA #24, compound alone, read-out: MIC)?
Its MIC is 62.5 µg/mL (≈ 185 µM).

And the MIC (MRSA and MSSA; MSSA #1003, compound alone, read-out: MIC)?
Its MIC is 62.6 µg/mL (≈ 185 µM).

And the MIC (MRSA and MSSA; MSSA #1010, compound alone, read-out: MIC)?
Its MIC is 62.5 µg/mL (≈ 185 µM).

What about the MIC (MRSA and MSSA; MSSA #1020, compound alone, read-out: MIC) of the same compound?
The MIC was 62.5 µg/mL (≈ 185 µM).

What about the MIC (MRSA and MSSA; MSSA #1023, compound alone, read-out: MIC) of the same compound?
Its MIC is 62.5 µg/mL (≈ 185 µM).

What about the MIC (MRSA and MSSA; MSSA #1029, compound alone, read-out: MIC) of the same compound?
Its MIC is 62.5 µg/mL (≈ 185 µM).

And the MIC (MRSA and MSSA; MSSA #1032, compound alone, read-out: MIC)?
Its MIC is 62.5 µg/mL (≈ 185 µM).

And the MIC50 (MRSA and MSSA; over all strains of Table 3-2, compound alone, read-out: MIC50)?
Its MIC50 is 62.5 µg/mL (≈ 185 µM).

Reference: patent US20060235076A1, “Medicinal composition for treating infection with drug-resistant staphylococcus aureus” (priority 2003, published 2006)
